According to patent publication US6426355B1, “Heterocyclic carboxamide-containing thiourea inhibitors of herpes viruses containing phenylenediamine group” (American Home Products, priority 1998, dated 2002):
Converted amounts (≈) assume the structure as drawn.

Columns and labels:
[1] = tested on: HSV-1; experiment: HSV Antiviral (ELISA) assay; assay type: cell-based; conditions: for IC50 (ug/ml) HSV: HSV-1 in Vero cells; for IC50: Human alphaherpesvirus 1, HSV-1 in Vero cells, read-out: IC50 (ug/ml) HSV
Procedure: Vero cells (ATCC #CCL-81) are plated on 96-well tissue culture plates at 3.5×10^4 cells per 100 μl tissue culture DMEM (Dulbecco's modified Eagle media) supplemented with 2% fetal bovine serum (FBS) in each well. After overnight incubation @ 37° C. (in 5% CO2) and 30 minutes prior to infection with HSV-1 (multiplicity of infection equal to 0.006), cells are either untreated, or treated with test compound (multiple concentrations) or reference standard drug control. After approximately 24 hours post-infection incubation @ 37° C. (in 5% CO2), cells are fixed for ELISA assay. The primary antibody is murine anti-HSV glycoprotein D monoclonal primary antibody and the secondary antibody is goat anti-mouse IgG linked to β-galactosidase. Thus the extent of viral replication is determined by assessing β-galactosidase activity by quantifying the generation of the 4-methyl umbelliferone fluorescent cleavage product after addition of the methyl umbelliferyl-β-D-galactoside (Sigma #M1633) substrate on a microfluorimeter (365 nm for excitation and 450 nm for emission). Antiviral activity (IC50) of the test compound is determined by comparing the flourescence obtained in absence of compound to that obtained in the presence of compound.

[2] = tested on: HCMV recombinant mutant virus (RV145); experiment: HCMV microtiter plate assay (beta-glucuronidase reporter); assay type: cell-based, Human Cytomegalovirus; conditions: for IC50 (ug/ml) HCMV: HCMV in human foreskin fibroblasts; for IC50: Human betaherpesvirus 5, Fibroblast, read-out: IC50 (ug/ml) HCMV
Text: Ninety-six well plate cultures of human foreskin fibroblasts are infected in the presence of inhibitor compound with a HCMV recombinant mutant virus whose genome contains the prokaryotic beta-glucuronidase gene (Jefferson, R. A., S. M. Burgess, and D. Hirsh. 1986. Beta-glucuronidase from Escherichia coli as a gene fusion marker. Proc. Natl. Acad. Sci. USA 83:8447-8451) whose expression is controlled by a viral promoter. An example of such a virus is RV145 (Jones, T. R., V. P. Muzithras, and Y. Gluzman. 1991. Replacement mutagenesis of the human cytomegalovirus genome: US10 and US11 gene products are nonessential. J. Virol. 65:5860-5872). Since it is under the control of a viral promoter, beta-glucuronidase expression is an indirect indicator of growth and replication of HCMV in this assay. At 96 hours post-infection, the infected cell lysates are prepared (using 50 mM sodium phosphate [pH7.0] containing 0.1% Triton X-100 and 0.1% sarkosyl) and assayed for beta-glucuronidase activity using a substrate for the enzyme which when cleaved yields either a product which can be measured colorimetrically in a spectrophotometer or fluorescently in a microfluorimeter. Examples of such substrates are p-nitrophenyl-beta-D-glucuronide and methylumbelliferylglucuronide, respectively. The presence of an antiviral compound is indicated by the reduced expression of the HCMV genome resident beta-glucuronidase gene, compared to the absence of inhibitor. […] Data from this assay generated using varying amounts of inhibitor compound is also used to estimate the IC50 of an inhibitor compound.

| SMILES | IC50 (ug/ml) HSV [1] | IC50 (ug/ml) HCMV [2] | IC50 [1] | IC50 [2] |
| --- | --- | --- | --- | --- |
| COc1ccccc1CCNC(=S)Nc1ccc(NC(=O)c2csnn2)cc1 [Example 651] | >10 µg/mL | 0.03 µg/mL (≈ 0.0725 µM) | – | – |
| O=C(Nc1ccc(NC(=S)NCc2ccc(Br)cc2)cc1)c1csnn1 [Example 743] | >10 µg/mL | 0.09 µg/mL (≈ 0.201 µM) | – | – |
| O=C(Nc1ccc(NC(=S)NCCSc2cccc(Br)c2)cc1)c1ccco1 [Example 679] | 10 µg/mL (≈ 21 µM) | 0.01 µg/mL (≈ 0.021 µM) | – | – |
| O=C(Nc1ccc(NC(=S)NCCc2ccc(Cl)cc2Cl)cc1)c1csnn1 [Example 707] | >10 µg/mL | 0.005 µg/mL (≈ 0.0111 µM) | – | – |
| O=C(Nc1ccc(NC(=S)Nc2ccc(Cl)c(Cl)c2)cc1)c1cocn1 [Example 699] | >10 µg/mL | 0.016 µg/mL (≈ 0.0393 µM) | – | – |
| O=C(Nc1ccc(NC(=S)NCCOc2ccc(Cl)c(Cl)c2)cc1)c1csnn1 [Example 703] | >10 µg/mL | 0.007 µg/mL (≈ 0.0149 µM) | – | – |
| O=C(Nc1ccc(NC(=S)NCCc2ccccc2Cl)cc1)c1csnn1 [Example 683] | 10 µg/mL (≈ 23.9 µM) | 0.02 µg/mL (≈ 0.0479 µM) | – | – |
| O=C(Nc1ccc(NC(=S)NCCOc2ccc(I)cc2)cc1)c1ccco1 [Example 698] | 6 µg/mL (≈ 11.8 µM) | 0.04 µg/mL (≈ 0.0788 µM) | – | – |
| COc1ccc(CCNC(=S)Nc2ccc(NC(=O)c3csnn3)cc2)cc1 [Example 652] | >10 µg/mL | 0.03 µg/mL (≈ 0.0725 µM) | – | – |
| COc1ccccc1CNC(=S)Nc1ccc(NC(=O)c2csnn2)cc1 [Example 650] | >10 µg/mL | 0.05 µg/mL (≈ 0.125 µM) | – | – |
| O=C(Nc1ccc(NC(=S)NCc2ccc(F)c(F)c2)cc1)c1csnn1 [Example 676] | >10 µg/mL | 0.013 µg/mL (≈ 0.0321 µM) | – | – |
| CC(Cc1ccccc1)NC(=S)Nc1ccc(NC(=O)c2csnn2)cc1 (stereo not shown) [Example 723] | >10 µg/mL | 0.03 µg/mL (≈ 0.0755 µM) | – | – |
| O=C(Nc1ccc(NC(=S)NCCOc2cccc(Cl)c2)cc1)c1ccco1 [Example 667] | 8 µg/mL (≈ 19.2 µM) | 0.03 µg/mL (≈ 0.0721 µM) | – | – |
| O=C(Nc1ccc(NC(=S)NCc2cccc(C(F)(F)F)c2)cc1)c1csnn1 [Example 731] | >10 µg/mL | 0.007 µg/mL (≈ 0.016 µM) | – | – |
| COc1ccc(CCNC(=S)Nc2ccc(NC(=O)c3csnn3)cc2)cc1Br [Example 681] | >10 µg/mL | 0.02 µg/mL (≈ 0.0406 µM) | – | – |
| O=C(Nc1ccc(NC(=S)NCc2ccc(Cl)c(Cl)c2)cc1)c1cscn1 [Example 745] | 9 µg/mL (≈ 20.6 µM) | 0.0025 µg/mL (≈ 0.00572 µM) | – | – |
| O=C(Nc1ccc(NC(=S)NCCc2cc(F)cc(F)c2)cc1)c1csnn1 [Example 720] | >10 µg/mL | 0.01 µg/mL (≈ 0.0238 µM) | – | – |
| O=C(Nc1ccc(NC(=S)Nc2cc(Cl)cc(Cl)c2)cc1)c1cocn1 [Example 702] | 4 µg/mL (≈ 9.82 µM) | 0.01 µg/mL (≈ 0.0246 µM) | – | – |
| O=C(Nc1ccc(NC(=S)NCCCCc2ccccc2)cc1)c1csnn1 [Example 648] | >10 µg/mL | 0.01 µg/mL (≈ 0.0243 µM) | – | – |
| COc1ccc(Br)cc1CCNC(=S)Nc1ccc(NC(=O)c2csnn2)cc1 [Example 682] | >10 µg/mL | 0.006 µg/mL (≈ 0.0122 µM) | – | – |
| CCc1ccc(CCNC(=S)Nc2ccc(NC(=O)c3csnn3)cc2)cc1 [Example 713] | >10 µg/mL | 0.009 µg/mL (≈ 0.0219 µM) | – | – |

| SMILES | IC50 (ug/ml) HSV [1] | IC50 (ug/ml) HCMV [2] | IC50 [1] | IC50 [2] |
| --- | --- | --- | --- | --- |
| Cc1cc(C)cc(CNC(=S)Nc2ccc(NC(=O)c3csnn3)cc2)c1 [Example 691] | >10 µg/mL | 0.008 µg/mL (≈ 0.0201 µM) | – | – |
| O=C(Nc1ccc(NC(=S)NCCc2cccc(I)c2)cc1)c1csnn1 [Example 768] | >10 µg/mL | 0.005 µg/mL (≈ 0.00982 µM) | – | – |
| O=C(Nc1ccc(NC(=S)Nc2ccc(Cl)c(C(F)(F)F)c2)cc1)c1cscn1 [Example 705] | >10 µg/mL | 0.006 µg/mL (≈ 0.0131 µM) | – | – |
| O=C(Nc1ccc(NC(=S)NCCSc2ccc(Cl)c(Cl)c2)cc1)c1csnn1 [Example 710] | >10 µg/mL | 0.006 µg/mL (≈ 0.0124 µM) | – | – |
| NC(=O)c1cccc(NC(=S)Nc2ccc(NC(=O)c3ccccc3F)cc2)c1 [Example 1002, N-[4-[[[[3-(Aminocarbonyl)phenyl]-amino]thioxomethyl]amino]phenyl]-2-fluoro-benzamide] | – | – | > 10 µg/mL | 0.07 µg/mL (≈ 0.171 µM) |
| COC(=O)c1cccc(NC(=S)Nc2ccc(NC(=O)c3ccccc3F)cc2)c1 [Example 1000, 3-{3-[4-(2-Fluoro-benzoylamino)-phenyl]-thioureido}-benzoic acid methyl ester] | – | – | > 10 µg/mL | 0.39 µg/mL (≈ 0.921 µM) |
| O=C(Nc1ccc(NC(=S)NCc2cc(C(F)(F)F)ccc2F)cc1)c1csnn1 [Example 671] | >10 µg/mL | 0.005 µg/mL (≈ 0.011 µM) | – | – |
| O=C(Nc1ccc(NC(=S)NCCSc2cc(C(F)(F)F)ccc2F)cc1)c1csnn1 [Example 711] | >10 µg/mL | 0.004 µg/mL (≈ 0.00798 µM) | – | – |
| O=C(Nc1ccc(NC(=S)NCc2cccc(I)c2)cc1)c1ccco1 [Example 662] | >10 µg/mL | 0.03 µg/mL (≈ 0.0628 µM) | – | – |
| O=C(Nc1ccc(NC(=S)Nc2ccc(Br)cc2)cc1)c1csnn1 [Example 739] | >10 µg/mL | 0.02 µg/mL (≈ 0.046 µM) | – | – |
| O=C(Nc1ccc(NC(=S)NCCC(c2ccccc2)c2ccccc2)cc1)c1csnn1 [Example 686] | >10 µg/mL | 0.007 µg/mL (≈ 0.0148 µM) | – | – |
| O=C(Nc1ccc(NC(=S)NCCc2ccc([N+](=O)[O-])cc2)cc1)c1csnn1 [Example 722] | >10 µg/mL | 0.015 µg/mL (≈ 0.035 µM) | – | – |
| CN(C)CCCc1cc(NC(=S)Nc2ccc(NC(=O)c3csnn3)cc2)cc(C(F)(F)F)c1 [Example 654] | >10 µg/mL | 0.07 µg/mL (≈ 0.138 µM) | – | – |
| O=C(Nc1ccc(NC(=S)NCCc2cccc(Br)c2)cc1)c1csnn1 [Example 770] | >10 µg/mL | 0.006 µg/mL (≈ 0.013 µM) | – | – |
| O=C(Nc1ccc(NC(=S)NCCOc2cccc(Cl)c2)cc1)c1csnn1 [Example 668] | >10 µg/mL | 0.009 µg/mL (≈ 0.0207 µM) | – | – |
| O=C(Nc1ccc(NC(=S)NCCSc2ccccc2)cc1)c1csnn1 [Example 655] | >10 µg/mL | 0.01 µg/mL (≈ 0.0241 µM) | – | – |
| CN(C)c1cc(CCNC(=S)Nc2ccc(NC(=O)c3csnn3)cc2)cc(C(F)(F)F)c1 [Example 674] | >10 µg/mL | 0.006 µg/mL (≈ 0.0121 µM) | – | – |
| O=C(Nc1ccc(NC(=S)NCCc2ccc(F)c(F)c2)cc1)c1csnn1 [Example 716] | >10 µg/mL | 0.01 µg/mL (≈ 0.0238 µM) | – | – |
| O=C(Nc1ccc(NC(=S)NCCOc2ccc(Br)cc2)cc1)c1csnn1 [Example 693] | >10 µg/mL | 0.03 µg/mL (≈ 0.0627 µM) | – | – |
| O=C(Nc1ccc(NC(=S)Nc2ccccc2Cl)cc1)c1ccccc1F [Example 998, N-{4-[3-(2-Chloro-phenyl)-thioureido]-phenyl}-2-fluoro-benzamide] | – | – | > 10 µg/mL | 0.016 µg/mL (≈ 0.04 µM) |
